Data published in patent US8999970B2, “Administration of an anti-obesity compound to individuals with renal impairment” (Arena Pharmaceuticals, Inc., priority 2010, dated 2015).
“Also recorded” adds a separate entry of the source.

Assay: Clinical trial APD356-016: plasma and urine pharmacokinetics of lorcaserin, M1 and M5 after a 10 mg dose in subjects with renal impairment
Conditions: for Ae0-120 / fe0-120: urine; for CL renal / AUC(0-t) / Cmax / half-life / AUC0-inf / MRT inf / Vd/F / tmax: human, 10 mg; for CL renal: plasma and urine, ClR/F; for AUC(0-t) / Cmax / half-life / AUC0-inf / MRT inf / Vd/F / tmax: plasma; for MRT inf: MRTinf; for Vd/F: Vz/F; for tmax: median
Procedure: The interaction of renal insufficiency with the pharmacokinetics, tolerability and safety of lorcaserin were evaluated in a formal PK study in subjects with renal impairment and in the populations studied in phase 2 and phase 3 clinical studies.
The pharmacokinetic properties of lorcaserin in subjects with varying degrees of renal impairment were evaluated in clinical trial APD356-016. At the time of study conduct and analysis, subjects were assigned to renal impairment groups based on creatinine clearance calculated using IDEAL body weight (Table 1). This calculation was used to avoid overestimation of creatinine clearance due to the excess body weight (overweight and obese subjects were enrolled in the trial). Summaries of pharmacokinetic properties by group assignment using creatinine clearance calculated using ACTUAL body weights are also provided in the sections that follow.
The FDA expects a reasonable margin between anticipated exposures and exposures that may produce toxicity. A reasonable margin can vary depending on the expected toxicity, but generally is an order of magnitude (10 times), but can sometimes be less for mild toxicity.
Table 13. Summary of Plasma Concentrations (ng/mL) of HSO3-APD356 Metabolite over Time by Group: Severe Renal Impairment Not Receiving Dialysis (see Table 13 next page)
Subject number 3140-505 was on dialysis and grouped in the end stage renal disease group.

[1] = 10 mg dose, Mild, actual BW groups
[2] = 10 mg dose, Mild, ideal BW groups
[3] = 10 mg dose, Moderate, actual BW groups
[4] = 10 mg dose, Moderate, ideal BW groups
[5] = 10 mg dose, Normal, actual BW groups
[6] = 10 mg dose, Normal, ideal BW groups
[7] = 10 mg dose, Severe N = 1, actual BW groups
[8] = 10 mg dose, Severe, ideal BW groups
[9] = Moderate N = 8, actual BW groups
[10] = oral, 10 mg dose, Mild, actual BW groups
[11] = oral, 10 mg dose, Mild, ideal BW groups
[12] = oral, 10 mg dose, Moderate, actual BW groups
[13] = oral, 10 mg dose, Moderate, ideal BW groups
[14] = oral, 10 mg dose, Normal, actual BW groups
[15] = oral, 10 mg dose, Normal, ideal BW groups
[16] = oral, 10 mg dose, Severe N = 1, actual BW groups
[17] = oral, 10 mg dose, Severe, ideal BW groups

## C[C@H]1CNCCc2ccc(Cl)cc21 [Lorcaserin, (R)-8-chloro-1-methyl-2,3,4,5-tetrahydro-1H-3-benzazepine]
[1]
  % AUC0-inf Extrapolated: 4.54%
  Cl/F: 17.3 L/h
  ClNR/F: 16.7 L/h
  T1/2z: 14.6 h
  Ae0-120: 297 µg
  fe0-120: 0.0352
[2]
  % AUC0-inf Extrapolated: 3.36%
  Cl/F: 13.3 L/h
  ClNR/F: 12.8 L/h
  T1/2z: 13.0 h
  Ae0-120: 326 µg
  fe0-120: 0.0386
[3]
  % AUC0-inf Extrapolated: 3.74%
  Cl/F: 18.9 L/h
  ClNR/F: 18.2 L/h
  T1/2z: 14.9 h
  Ae0-120: 304 µg
  fe0-120: 0.0360
[4]
  % AUC0-inf Extrapolated: 4.92%
  Cl/F: 17.7 L/h
  ClNR/F: 17.0 L/h
  T1/2z: 15.9 h
  Ae0-120: 327 µg
  fe0-120: 0.0387
[5]
  % AUC0-inf Extrapolated: 3.57%
  Cl/F: 15.6 L/h
  ClNR/F: 15.1 L/h
  T1/2z: 12.1 h
  Ae0-120: 257 µg
  fe0-120: 0.0304
[6]
  % AUC0-inf Extrapolated: 3.81%
  Cl/F: 17.5 L/h
  ClNR/F: 17.1 L/h
  T1/2z: 11.0 h
  Ae0-120: 185 µg
  fe0-120: 0.0220
[7]
  % AUC0-inf Extrapolated: 3.70%
  Cl/F: 17.6 L/h
  ClNR/F: 17.2 L/h
  T1/2z: 18.8 h
  Ae0-120: 204 µg
  fe0-120: 0.0242
[8]
  % AUC0-inf Extrapolated: 3.59%
  Cl/F: 19.7 L/h
  ClNR/F: 19.0 L/h
  T1/2z: 15.0 h
  Ae0-120: 280 µg
  fe0-120: 0.0332
ESRD
  Removal by hemodialysis: not removed; also recorded: not cleared
Mild N = 10, actual BW groups
  Geometric Mean Ratio of LSM (90% CI), AUC0-inf, relative to Normal Renal Function Group: 0.921 (0.735, 1.15)
  Geometric Mean Ratio of LSM (90% CI), AUClast, relative to Normal Renal Function Group: 0.912 (0.723, 1.15)
  Geometric Mean Ratio of LSM (90% CI), Cmax, relative to Normal Renal Function Group: 0.819 (0.652, 1.03)
Mild, ideal BW groups
  Geometric Mean Ratio of LSM (90% CI), AUC0-inf, relative to Normal Renal Function Group: 1.30 (1.01, 1.67)
  Geometric Mean Ratio of LSM (90% CI), AUClast, relative to Normal Renal Function Group: 1.31 (1.01, 1.69)
  Geometric Mean Ratio of LSM (90% CI), Cmax, relative to Normal Renal Function Group: 0.991 (0.764, 1.29)
[9]
  Geometric Mean Ratio of LSM (90% CI), AUC0-inf, relative to Normal Renal Function Group: 0.869 (0.683, 1.11)
  Geometric Mean Ratio of LSM (90% CI), AUClast, relative to Normal Renal Function Group: 0.868 (0.678, 1.11)
  Geometric Mean Ratio of LSM (90% CI), Cmax, relative to Normal Renal Function Group: 0.738 (0.579, 0.941)
Moderate, ideal BW groups
  Geometric Mean Ratio of LSM (90% CI), AUC0-inf, relative to Normal Renal Function Group: 1.03 (0.806, 1.32)
  Geometric Mean Ratio of LSM (90% CI), AUClast, relative to Normal Renal Function Group: 1.02 (0.791, 1.32)
  Geometric Mean Ratio of LSM (90% CI), Cmax, relative to Normal Renal Function Group: 0.697 (0.537, 0.904)
Severe N = 1, actual BW groups
  Geometric Mean Ratio of LSM (90% CI), AUC0-inf, relative to Normal Renal Function Group: 0.861 (0.494, 1.50)
  Geometric Mean Ratio of LSM (90% CI), AUClast, relative to Normal Renal Function Group: 0.861 (0.487, 1.52)
  Geometric Mean Ratio of LSM (90% CI), Cmax, relative to Normal Renal Function Group: 0.468 (0.267, 0.821)
Severe, ideal BW groups
  Geometric Mean Ratio of LSM (90% CI), AUC0-inf, relative to Normal Renal Function Group: 0.931 (0.727, 1.19)
  Geometric Mean Ratio of LSM (90% CI), AUClast, relative to Normal Renal Function Group: 0.933 (0.723, 1.20)
  Geometric Mean Ratio of LSM (90% CI), Cmax, relative to Normal Renal Function Group: 0.686 (0.529, 0.891)
[10]
  CL renal: 10.3 mL/min
  AUC0-inf: 535 ng·h/mL
  Cmax: 30.2 ng/mL
  MRT inf: 19.3 h
  Vd/F: 361 L
  tmax: 2.5 h
[11]
  CL renal: 8.88 mL/min
  AUC0-inf: 644 ng·h/mL
  Cmax: 36.3 ng/mL
  MRT inf: 18 h
  Vd/F: 248 L
  tmax: 4.5 h
[12]
  CL renal: 11.1 mL/min
  AUC0-inf: 516 ng·h/mL
  Cmax: 27.6 ng/mL
  MRT inf: 20.8 h
  Vd/F: 381 L
  tmax: 2.5 h
[13]
  CL renal: 11.1 mL/min
  AUC0-inf: 538 ng·h/mL
  Cmax: 26.2 ng/mL
  MRT inf: 21.1 h
  Vd/F: 399 L
  tmax: 2.5 h
[14]
  CL renal: 7.8 mL/min
  AUC0-inf: 569 ng·h/mL
  Cmax: 36 ng/mL
  MRT inf: 16.5 h
  Vd/F: 266 L
  tmax: 2 h
[15]
  CL renal: 6.53 mL/min
  AUC0-inf: 501 ng·h/mL
  Cmax: 37 ng/mL
  MRT inf: 14.8 h
  Vd/F: 276 L
  tmax: 2 h
[16]
  CL renal: 7.27 mL/min
  AUC0-inf: 478 ng·h/mL
  Cmax: 16.4 ng/mL
  MRT inf: 30.8 h
  Vd/F: 479 L
  tmax: 4 h
[17]
  CL renal: 11 mL/min
  AUC0-inf: 486 ng·h/mL
  Cmax: 26.4 ng/mL
  MRT inf: 21.7 h
  Vd/F: 401 L
  tmax: 3 h
AUC24 hr, ESRD, 10 mg QD Authentic, Day 1
  AUC(0-t): 618 ng·h/mL
AUC24 hr, Mild, 10 mg QD Authentic, Day 1
  AUC(0-t): 623 ng·h/mL
AUC24 hr, Moderate, 10 mg QD Authentic, Day 1
  AUC(0-t): 515 ng·h/mL
AUC24 hr, Normal, 10 mg QD Authentic, Day 1
  AUC(0-t): 482 ng·h/mL
AUC24 hr, Severe, 10 mg QD Authentic, Day 1
  AUC(0-t): 469 ng·h/mL
ESRD, 10 mg QD Authentic, Day 1
  Cmax: 27.2 ng/mL
Mild, 10 mg QD Authentic, Day 1
  Cmax: 36.3 ng/mL
Moderate, 10 mg QD Authentic, Day 1
  Cmax: 26.2 ng/mL
Normal, 10 mg QD Authentic, Day 1
  Cmax: 37 ng/mL
Severe, 10 mg QD Authentic, Day 1
  Cmax: 26.4 ng/mL
t1/2, ESRD, 10 mg QD Authentic, Day 1
  half-life: 43.8 h
t1/2, Mild, 10 mg QD Authentic, Day 1
  half-life: 13 h
t1/2, Moderate, 10 mg QD Authentic, Day 1
  half-life: 15.9 h
t1/2, Normal, 10 mg QD Authentic, Day 1
  half-life: 11 h
t1/2, Severe, 10 mg QD Authentic, Day 1
  half-life: 15 h
oral, AUC0-t, 10 mg dose, Mild, actual BW groups
  AUC(0-t): 513 ng·h/mL
oral, AUC0-t, 10 mg dose, Mild, ideal BW groups
  AUC(0-t): 623 ng·h/mL
oral, AUC0-t, 10 mg dose, Moderate, actual BW groups
  AUC(0-t): 497 ng·h/mL
oral, AUC0-t, 10 mg dose, Moderate, ideal BW groups
  AUC(0-t): 515 ng·h/mL
oral, AUC0-t, 10 mg dose, Normal, actual BW groups
  AUC(0-t): 549 ng·h/mL
oral, AUC0-t, 10 mg dose, Normal, ideal BW groups
  AUC(0-t): 482 ng·h/mL
oral, AUC0-t, 10 mg dose, Severe N = 1, actual BW groups
  AUC(0-t): 461 ng·h/mL
oral, AUC0-t, 10 mg dose, Severe, ideal BW groups
  AUC(0-t): 469 ng·h/mL
Normal renal function
  Fractional excretion: 2.2%
